# Several values for one entry are separate records, joined by “and”; a condition that tells them apart may be missing. Identical values can stand only once. Like-named read-outs stand apart in the source and are kept apart here.
# Experiments:
# [1] = tested on: SLC40A1; test: Gene expression of SLC40A1 in HepG2 cells exposed to compound (microarray, log2 treatment:control ratio); assay type: cell-based, human; settings: for Log2 treatment: control ratio SLC40A1: 24 h exposure, Ames negative compounds, one line per replicate of triplicate experiments
# [2] = tested on: C10orf65/HOGA1; test: Gene expression of C10orf65/HOGA1 in HepG2 cells exposed to compound (microarray, log2 treatment:control ratio); assay type: cell-based, human; settings: for C10orf65/HOGA1: expression versus reference value, single measurement of three; for Log2 treatment: control ratio C10orf65/HOGA1: 24 h exposure, Ames negative compounds, one line per replicate of triplicate experiments
# [3] = tested on: Salmonella typhimurium; settings: cited from earlier work
# [4] = tested on: rodents; settings: cited from earlier work
# [5] = tested on: conventional in vitro genotoxicity assays; settings: cited from earlier work
# [6] = tested on: PNMA6A; test: Gene expression of PNMA6A in HepG2 cells exposed to compound (microarray, log2 treatment:control ratio); assay type: cell-based, human; settings: for Log2 treatment: control ratio PNMA6A: 24 h exposure, Ames negative compounds, one line per replicate of triplicate experiments
# [7] = tested on: HepG2 cell
# [8] = HepG2 cells, expression versus reference value, single measurement of three
# [9] = standard in vivo genotoxicity designation
Structure (SMILES),"SLC40A1 [1, 8]",C10orf65/HOGA1 [2],In vivo GTX ([4]; in vivo),Standard ([4]; in vivo),In vitro GTX [5],"PNMA6A [6, 8]",At least ⅔ genes +? [7],Average result over three measurements [7],Prediction (class prediction results using the method of the invention) [7],also measured
CC(=O)Nc1ccc(O)cc1 [APAP],− (below the reference value),− (below the reference value),+,GTX,+,,,,,Ames ([3]; Ames results based on NTP data): −
ClC(Cl)Br [BDCM],− (below the reference value),,−,NGTX,+,− (below the reference value),NGTX,NGTX,NGTX,Log2 treatment: control ratio SLC40A1 ([1]; HepG2 cells): −0.891 and −0.178 and −0.017; Log2 treatment: control ratio PNMA6A ([6]; HepG2 cells): 0.22 and −0.289 and −0.185; Log2 treatment: control ratio C10orf65/HOGA1 [2]: 0.113 and 0.258 and 0.086; Ames [3]: −
c1ccc2c(c1)cc1ccc3cccc4ccc2c1c34 [BaP],,,+,,+,,,,,
O=C1CCCCCN1 [CAP],− (below the reference value),,−,NGTX,−,,,NGTX,NGTX+,Log2 treatment: control ratio SLC40A1 ([1]; HepG2 cells): −0.607 and −0.032 and 0.265; Log2 treatment: control ratio PNMA6A ([6]; HepG2 cells): 0.312 and −0.168 and −0.165; Log2 treatment: control ratio C10orf65/HOGA1 [2]: 0.203 and 0.223 and 0.138; Ames ([3]; Ames results based on NTP data): −
ClC(Cl)(Cl)Cl [CCI4],− (below the reference value),,,,,,,,,"Standard [4, 9]: NGTX"
ClC(Cl)(Cl)Cl [CCl4],,,−,,+,,,,NGTX+,Log2 treatment: control ratio SLC40A1 ([1]; HepG2 cells): −0.888 and −0.041 and −0.185; Log2 treatment: control ratio PNMA6A ([6]; HepG2 cells): 0.412 and −0.425 and −0.14; Log2 treatment: control ratio C10orf65/HOGA1 [2]: 0.361 and 0.073 and −0.083; Ames [3]: −
O=c1ccc2ccccc2o1 [Cou],− (below the reference value),− (below the reference value),−,NGTX,−,− (below the reference value),NGTX,NGTX,NGTX,"Log2 treatment: control ratio SLC40A1 ([1]; HepG2 cells): −0.215 and −0.309; Log2 treatment: control ratio SLC40A1 ([1]; HepG2 cells, listed as COU): −0.104; Log2 treatment: control ratio PNMA6A ([6]; HepG2 cells): 0.073 and 0.081; Log2 treatment: control ratio PNMA6A ([6]; HepG2 cells, listed as COU): 0.14; Log2 treatment: control ratio C10orf65/HOGA1 [2]: −0.481 and −0.483; Log2 treatment: control ratio C10orf65/HOGA1 ([2]; listed as COU): −0.069; Ames ([3]; Ames results based on NTP data): −"
COc1cc(/C=C/C(=O)CC(=O)/C=C/c2ccc(O)c(OC)c2)ccc1O [Cur],− (below the reference value),− (below the reference value),−,NGTX,+,,NGTX,NGTX,NGTX,Log2 treatment: control ratio SLC40A1 ([1]; HepG2 cells): 0.174 and 0.252 and 0.253; Log2 treatment: control ratio PNMA6A ([6]; HepG2 cells): −0.138 and −0.135 and 0.263; Log2 treatment: control ratio C10orf65/HOGA1 [2]: 0.113 and 0.028 and −0.293; Ames ([3]; Ames results based on NTP data): −
CCCCC(CC)COC(=O)c1ccccc1C(=O)OCC(CC)CCCC (stereo not drawn) [DEHP],− (below the reference value),− (below the reference value),,NGTX,−,− (below the reference value),NGTX,NGTX,NGTX,"Log2 treatment: control ratio SLC40A1 ([1]; HepG2 cells, listed as DEPH): 0.249 and −0.387 and 0.234; Log2 treatment: control ratio PNMA6A ([6]; HepG2 cells, listed as DEPH): −0.264 and −0.841 and −0.034; Ames [3]: −"
CN(C)N=O [DMN],,,+,,+,,,GTX,GTX+,Ames [3]: +; Standard (in vivo genotoxicity designation) ([4]; in vivo): GTX
O=C(O)Cc1ccccc1Nc1c(Cl)cccc1Cl [Diclo],− (below the reference value),− (below the reference value),,NGTX,,,,,,
ClC1C(Cl)C(Cl)C(Cl)C(Cl)C1Cl (stereo not drawn) [HCH],+ (above the reference value),− (below the reference value),,NGTX,,− (below the reference value),NGTX,NGTX,NGTX,Log2 treatment: control ratio SLC40A1 ([1]; HepG2 cells): 0.334 and 0.924 and 0.712; Log2 treatment: control ratio PNMA6A ([6]; HepG2 cells): −0.604 and −0.2 and 0.012; Log2 treatment: control ratio C10orf65/HOGA1 [2]: −0.367 and −0.143 and −0.165
CO[C@@]12[C@H](COC(N)=O)C3=C(C(=O)C(C)=C(N)C3=O)N1C[C@@H]1N[C@@H]12 [MMC],,,+,,,,,,,
O=[N+]([O-])c1ccccc1 [NBZ],− (below the reference value),,−,NGTX,−,,,,,
Oc1c(Cl)c(Cl)c(Cl)c(Cl)c1Cl [PCP],,− (below the reference value),,,,− (below the reference value),,,,"Standard [4, 9]: NGTX"
"Oc1ccccc1 [Ph, Phenol]",,,+,GTX,+,,GTX,GTX,GTX,SLC40A1 [1]: + (key: +: above the reference value; −: below the reference value); PNMA6A [6]: + (key: +: above the reference value; −: below the reference value); Ames [3]: −
CC(=O)[C@H]1CC[C@H]2[C@@H]3CCC4=CC(=O)CC[C@]4(C)[C@H]3CC[C@]12C [Prog],− (below the reference value),,−,NGTX,,− (below the reference value),,,,
Cc1noc(NS(=O)(=O)c2ccc(N)cc2)c1C [Sulfi],,− (below the reference value),−,NGTX,,− (below the reference value),,,,
O=C1O[C@H]([C@@H](O)CO)C(O)=C1O [VitC],,+ (above the reference value),,,,+ (above the reference value),GTX,GTX,GTX,"In vivo GTX ([4]; positive when at least one in vivo assay (MN, CA) positive, equivocal considered positive): +; Standard [4, 9]: GTX"
CC1(C)S[C@@H]2[C@H](NC(=O)[C@H](N)c3ccccc3)C(=O)N2[C@H]1C(=O)O.O.O.O [ampC],− (below the reference value),− (below the reference value),,,,,,,,"Standard [4, 9]: NGTX"
Cl[C@H]1[C@H](Cl)[C@@H](Cl)[C@@H](Cl)[C@H](Cl)[C@H]1Cl [γ-HCH],,,−,,−,,,,,Ames [3]: −

# Source: patent US9822414B2, “In vitro method for predicting in vivo genotoxicity of chemical compounds” (priority 2011, dated 2017)
